# Data as given in patent EP1232756A1, “DRUGS, DRINKS OR FOODS” (Takara Shuzo Co, Ltd., priority 1999, dated 2001).
# pIC50: −log10 of the molar value.
# Experiments:
# female SD rat [1] = test: Agonistic (estrogenic) activity: immature rat uterine weight (Example 1(2)); type: in vivo; settings: substance alone
# Description: A 17-days old female SD rat (purchased from Japan SLC) was received together with its mother, weaned at 20 days of age, and subjected to experiments from the next day. Five ml per kg body weight of EGCG (Sigma) or bisphenol-A (hereinafter referred to as BisA, Tokyo Kasei Kogyo) suspended in peanut oil (Nacalai Tesque) was administered orally and forcibly. Peanut oil was administered to a control rat in a similar manner. Administration was carried out once a day for three successive days. The uterine removed 24 hours after the last administration was weighed. BisA or EGCG (80 or 800 mg/kg) was administered. […]
# female SD rat [2] = test: Antagonistic (anti-estrogenic) activity of EGCG against bisphenol-A, immature rat uterine weight (Example 1(3)); type: in vivo; settings: BisA 800 mg/kg oral alone
# Description: A 17-days old female SD rat (purchased from Japan SLC) was received together with its mother, weaned at 20 days of age, and subjected to experiments from the next day. Five ml per kg body weight of EGCG (Sigma) or bisphenol-A (hereinafter referred to as BisA, Tokyo Kasei Kogyo) suspended in peanut oil (Nacalai Tesque) was administered orally and forcibly. Peanut oil was administered to a control rat in a similar manner. Administration was carried out once a day for three successive days. The uterine removed 24 hours after the last administration was weighed. BisA (800 mg/kg) and EGCG (800 mg/kg) were administered at the same time.
# female SD rat [3] = test: Anti-estrogenic activity of solution of EGCG in ethanol against bisphenol-A, rat uterine weight (Example 2); type: in vivo; settings: for Uterine weight: mean ± standard error; for Ratio: vs control (100%)
# Description: A 17-days old female SD rat (purchased from Japan SLC) was received together with its mother, weaned at 20 days of age, and subjected to experiments from the next day. BisA was weighed such that it would be administered at 200 or 40 mg/kg and dissolved in a small volume of ethanol. Peanut oil was added thereto to result in a final ethanol concentration of 5%. The resulting mixture was orally administered for three successive days. The uterine removed on the next day was weighed. EGCG was dissolved by adding ethanol and water was then added thereto to adjust the final ethanol concentration to 10%. The solution was orally administered on the day before the administration of BisA and 30 minutes before each of the successive administrations of BisA.
# female SD rat [4] = test: Effect of ethanol concentration on anti-estrogenic activity of EGCG, rat uterine weight (Example 4); type: in vivo; settings: BisA 40 mg/kg subcutaneous alone
# Description: (§1) A 16-days old female SD rat (Japan SLC) was purchased together with its mother, weaned at 19 days of age, and subjected to experiments from the next day. BisA was weighed such that it would be administered at 40 mg/kg and dissolved in a small volume of ethanol. Peanut oil was added thereto to result in a final ethanol concentration of 5%. The resulting mixture was subcutaneously administered for three successive days. The uterine removed on the day after the third administration day was weighed. EGCG (200 mg/kg) was dissolved by adding ethanol and water was then added thereto to adjust the final ethanol concentration to 10, 5, 1, 0.5 or 0%. The solution was orally administered 90 minutes before the administration of BisA.
# female SD rat [5] = test: Anti-estrogenic activity of solution of EGCG in ethanol, subcutaneous BisA, rat uterine weight (Example 5); type: in vivo; settings: BisA 40 mg/kg subcutaneous alone
# Description: as §1, with “10” for “10, 5, 1, 0.5”, “30” for “90”
# female SD rat [6] = test: Dose dependency of anti-estrogenic activity of solution of EGCG in ethanol, rat uterine weight (Example 6); type: in vivo; settings: for Ratio: vs control (100%)
# Description: as §1, with “subcutaneously or orally” for “subcutaneously”, “EGCG” for “EGCG (200 mg/kg)”, “10%.” for “10, 5, 1, 0.5 or 0%.”, “30” for “90”
# [7] = test system: human breast cancer-derived MCF-7 cells; test: E-SCREEN assay, proliferation of cultured cells, MTT method (Example 8); type: cell-based; settings: BisA alone
# Description: A test for proliferation of cultured cells was carried out according to a method called the E-SCREEN assay as described in Ana M. Soto et al. (Environ. Health Perspect. 103:113-122(1995)). Briefly, 4.0 x 10^3 of human breast cancer-derived MCF-7 cells in a volume of 100 µL were seeded into each well of a 96-well plate. The plate was incubated overnight. BisA or a combination of BisA and n-octyl gallate was then added thereto. A well without the addition was used as a control. The cells were further cultured for 4 days in a medium, Dulbecco's modified Eagle medium without Phenol Red supplemented with 5% FCS treated with activated carbon-dextran. The MTT method was used to measured the cell numbers.
# female SD rat [8] = test: Anti-estrogenic activity of n-octyl gallate against BisA, rat uterine weight (Example 9); type: in vivo; settings: BisA 40 mg/kg oral + vehicle
# Description: (§2) A 16-days old female SD rat (Japan SLC) was purchased together with its mother, weaned at 19 days of age, and subjected to experiments from the next day. n-Octyl gallate (Tokyo Kasei Kogyo) was dissolved in a small volume of ethanol. Peanut oil was added thereto to result in a final ethanol concentration of 5%. The resulting mixture was orally administered to the 20-days old female SD rat for three successive days. The uterine removed on the day after the last administration day was weighed. Peanut oil containing 5% ethanol was used for a vehicle administration group. BisA was dissolved in a small volume of ethanol. Peanut oil was added thereto to result in a final ethanol concentration of 5%. It was orally administered 1.5 hours after the administration of n-octyl gallate.
# female SD rat [9] = test: Anti-estrogenic activity of n-octyl gallate or n-cetyl gallate against subcutaneously administered BisA, rat uterine weight (Example 11); type: in vivo; settings: for Ratio: vs control (100%)
# Description: as §2, with “17-days” for “16-days”, “20” for “19”, “or n-cetyl gallate (both from Tokyo” for “(Tokyo”, “21-days” for “20-days”, “The mixture” for “It”, “subcutaneously administered.” for “orally administered 1.5 hours after the administration of n-octyl gallate.”
# female SD rat [10] = test: Anti-estrogenic activity of solution of EGCG in ethanol against 4-nonylphenol, rat uterine weight (Example 3); type: in vivo; settings: NP 50 mg/kg oral alone
# Description: A 16-days old female SD rat (Japan SLC) was purchased together with its mother, weaned at 19 days of age, and subjected to experiments from the next day.
# 4-Nonylphenol (hereinafter referred to as NP) was weighed such that it would be administered at 50 mg/kg and diluted by adding peanut oil thereto. The resulting mixture was orally administered for three successive days. The uterine removed on the day after the third administration day was weighed. EGCG was dissolved by adding ethanol and water was then added thereto to adjust the final ethanol concentration to 10%. The solution was orally administered 90 minutes before the administration of NP.
# female SD rat [11] = test: Anti-estrogenic activity of n-octyl gallate against NP, rat uterine weight (Example 10); type: in vivo; settings: NP 50 mg/kg oral + vehicle
# Description: A 16-days old female SD rat (Japan SLC) was purchased together with its mother, weaned at 19 days of age, and subjected to experiments from the next day. n-Octyl gallate (Tokyo Kasei Kogyo) was dissolved in a small volume of ethanol. Peanut oil was added thereto to result in a final ethanol concentration of 5%. The resulting mixture was orally administered to the 20-days old female SD rat for three successive days. The uterine removed on the day after the last administration day was weighed. Peanut oil containing 5% ethanol was used for a vehicle administration group. NP weighed such that it would be administered at 50 mg/kg was diluted by adding peanut oil. It was orally administered 1.5 hours after the administration of n-octyl gallate.
# [12] = target: T1, ER(α) (estrogen receptor α) (Homo sapiens, UniProt P03372); test: Binding to estrogen receptor, fluorescence polarization competition (FP Screen-for-Competitors kit, ER-α) (Example 7); settings: concentration inhibiting 50% of the binding of the ES1-ER(α) complex by competing with ES1; 1 hour at room temperature
# T1 construct: purchased PanVera V2577
# T1 sequence (P03372 1-595): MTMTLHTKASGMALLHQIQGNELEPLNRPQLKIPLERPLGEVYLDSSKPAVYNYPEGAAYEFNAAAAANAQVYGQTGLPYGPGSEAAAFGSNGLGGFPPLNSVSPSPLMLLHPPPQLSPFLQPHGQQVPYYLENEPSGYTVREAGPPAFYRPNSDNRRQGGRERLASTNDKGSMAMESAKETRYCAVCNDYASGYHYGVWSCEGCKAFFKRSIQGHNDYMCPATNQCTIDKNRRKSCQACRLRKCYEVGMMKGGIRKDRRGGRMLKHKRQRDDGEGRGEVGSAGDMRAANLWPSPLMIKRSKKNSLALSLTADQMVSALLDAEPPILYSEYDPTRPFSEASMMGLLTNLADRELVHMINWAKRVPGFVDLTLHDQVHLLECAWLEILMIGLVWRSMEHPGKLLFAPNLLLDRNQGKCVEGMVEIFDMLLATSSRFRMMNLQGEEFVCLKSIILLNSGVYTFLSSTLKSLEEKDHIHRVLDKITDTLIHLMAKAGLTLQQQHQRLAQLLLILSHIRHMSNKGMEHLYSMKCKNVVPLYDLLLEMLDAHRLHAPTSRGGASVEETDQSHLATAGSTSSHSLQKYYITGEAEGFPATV
# Description: Bindings of various gallic acid derivatives to estrogen receptor were tested using FP Screen-for-Competitors kit, ER-α, high sensitivity kit (V2577: PanVera). The tests were carried out basically according to the procedure as described in the manual attached to the kit. One of various gallic acid derivatives (n-octyl gallate (gallic acid n-octyl ester), n-dodecyl gallate (gallic acid n-dodecyl ester) and n-cetyl gallate (gallic acid n-hexadecyl ester)) was dissolved in DMSO and serially diluted to prepare diluted samples (0.5 M - 0.0000000005 M). 49 µL of Screening buffer attached to the kit was added to 1 µL of one of the diluted samples and stirred thoroughly. 50 µL of 10 nM-15 nM:ES1-ER(α) complex (a complex of ES1 (a fluorescent ligand that binds to ER) and ER(α) (estrogen receptor α)) attached to the kit was added thereto, resulting in the total volume of 100 µL. After allowing to stand for 1 hour at room temperature, fluorescence polarization was measured at an excitation wavelength of 360 nm and an emission wavelength of 535 nm using Full-Range BEACON 2000 (PanVera).
structure (smiles),measurement,setting,value
"CC(C)(c1ccc(O)cc1)c1ccc(O)cc1 [BisA, bisphenol-A, reference compound]",Uterine weight,"female SD rat [1]; 800 mg/kg oral in peanut oil, once a day for 3 days, mean ± standard error",55.2 ± 2.3 mg
same,Ratio,"female SD rat [1]; uterine weight vs control group (100%), 800 mg/kg oral, 3 days",137%
same,Uterine weight,female SD rat [2]; mean ± standard error,54.7 ± 5.5 mg
same,Ratio,female SD rat [2]; vs control (100%),147%
same,Uterine weight,female SD rat [3]; BisA 40 mg/kg oral alone,64.5 ± 9.2 mg
same,Uterine weight,female SD rat [3]; BisA 200 mg/kg oral alone,57.7 ± 5.2 mg
same,Ratio,"female SD rat [3]; BisA 40 mg/kg, oral, alone",149%
same,Ratio,female SD rat [3]; BisA 200 mg/kg oral alone,133%
same,Uterine weight,female SD rat [4]; mean ± standard error,49.9 ± 2.1 mg
same,Ratio,female SD rat [4]; vs control (100%),186%
same,Uterine weight,female SD rat [5]; mean ± standard error,50.0 ± 2.7 mg
same,Ratio,female SD rat [5]; vs control (100%),162%
same,Uterine weight,"female SD rat [6]; BisA 40 mg/kg subcutaneous alone, mean ± standard error",52.2 ± 2.9 mg
same,Ratio,female SD rat [6]; BisA 40 mg/kg subcutaneous alone,160%
same,Ratio,"female SD rat [6]; BisA 40 mg/kg, oral, alone",140%
same,number of the cells proliferated relative to the control,[7]; MCF-7,1.8 fold
same,Relative rate of increase in cell number,"[7]; MCF-7, 4 days culture, control = 100",180%
same,Uterine weight,female SD rat [8]; mean ± standard error,48.9 ± 2.1 mg
same,Ratio,female SD rat [8]; vs control (100%),161%
same,Uterine weight,"female SD rat [9]; BisA 40 mg/kg subcutaneous + vehicle, mean ± standard error",59.7 ± 2.7 mg
same,Ratio,female SD rat [9]; BisA 40 mg/kg subcutaneous + vehicle,145%
"CCCCCCCCCc1ccc(O)cc1 [NP, 4-Nonylphenol, reference compound]",Uterine weight,female SD rat [10]; mean ± standard error,44.4 ± 3.2 mg
same,Ratio,female SD rat [10]; vs control (100%),144%
same,Uterine weight,female SD rat [11]; mean ± standard error,47.6 ± 2.3 mg
same,Ratio,female SD rat [11]; vs control (100%),144%
"CCCCCCCCCCCCOC(=O)c1cc(O)c(O)c(O)c1 [n-Dodecyl gallate, gallic acid n-dodecyl ester]",pIC50,[12],6.51
"CCCCCCCCCCCCCCCCOC(=O)c1cc(O)c(O)c(O)c1 [n-cetyl gallate, gallic acid n-hexadecyl ester]",pIC50,[12],7.32
same,Uterine weight,"female SD rat [9]; BisA 40 mg/kg subcutaneous + n-cetyl gallate 1 mg/kg oral, 3 days",45.1 ± 2.3 mg
same,Uterine weight,"female SD rat [9]; BisA 40 mg/kg subcutaneous + n-cetyl gallate 5 mg/kg oral, 3 days",43.1 ± 2.0 mg
same,Ratio,female SD rat [9]; BisA 40 mg/kg subcutaneous + n-cetyl gallate 1 mg/kg oral,109%
same,Ratio,female SD rat [9]; BisA 40 mg/kg subcutaneous + n-cetyl gallate 5 mg/kg oral,104%
